Data: article PMC6851324, “Design and development of stapled transmembrane peptides that disrupt the activity of G-protein–coupled receptor oligomers” (The Journal of Biological Chemistry, 2019)
Where two headings read alike, the source gives them in different places. Where a SMILES comes first, the peptide text is derived from it. Bridges are numbered along the chain shown (N, C = ends). Where no end group is shown, it is not given here. [ ]: non-standard residue; d: D form. S5 = C=CCCC[C@](C)(N)C(=O)O; Nle = CCCC[C@H](N)C(=O)O

Target: T1, α-chymotrypsin from bovine pancreas (Bos taurus, UniProt P00766, DEL14-15/DEL147-148)
T1 construct: purchased Sigma Type II; host or cells: bovine pancreas
Assay: Proteolytic stability against chymotrypsin
Format: in vitro ADME
Conditions: cattle
Method: Figure 4. Biophysical analysis of stapled peptides. A, amino acid sequence alignment of the targeted TM regions and disrupting peptides. Cys residues are in the reduced state. Blue bridges indicate the stapled amino acid residues. […] Yields, purity, and MALDI-TOF data are shown for the stapled peptides and negative control. B, CD analysis of 30–50 μM peptides at 20 °C. For proteolytic stability studies, the peptide solution (55.5 μM for trypsin and chymotrypsin and 11.1 μM for serum) was incubated in the presence of 0.55 μg/ml trypsin from porcine pancreas (E), α-chymotrypsin (F), or mouse serum (G) at 37 °C for the indicated times (indicated on the x axis). Data are mean ± S.E. (error bars) (n = 3) percentage of intact peptide normalized to t = 0. Proteolytic half-lives and putative cleavage sites (predicted using the Expasy bioinformatics server's model with a 50% probability of cleavage) are indicated at the bottom of each panel. Positive correlation between helicity and half-life in trypsin/chymotrypsin (C) or serum (D) was determined by two-tailed Pearson's correlation test. TEXT PRINTED IN THE PICTURE: (B) TM7-TAT: Ellipticity (%): 3.4 | (B) TM6-TAT: Ellipticity (%): 18.3 | (B) TM5-TAT: Ellipticity (%): 20.9 | (B) 8: Ellipticity (%): 58.3 | (B) 9: Ellipticity (%): 46.4 | (B) 10: Ellipticity (%): 36.8 | (B) 11: Ellipticity (%): 46 | (E) TM7-TAT: Half-life (min): 21; #Cleavage sites: 8 | (E) TM6-TAT: Half-life (min): 40; #Cleavage sites: 7 | (E) TM5-TAT: Half-life (min): 33; #Cleavage sites: 8 | (E) 8: Half-life (min): 307; #Cleavage sites: 0 | (E) 9: Half-life (min): 178; #Cleavage sites: 0 | (E) 10: Half-life (min): 75; #Cleavage sites: 6 | (E) 11: Half-life (min): 84; #Cleavage sites: 0 | (F) TM7-TAT: Half-life (min): 22; #Cleavage sites: 6 | (F) TM6-TAT: Half-life (min): 32; #Cleavage sites: 7 | (F) TM5-TAT: Half-life (min): 28; #Cleavage sites: 7 | (F) 8: Half-life (min): 425; #Cleavage sites: 4 | (F) 9: Half-life (min): 198; #Cleavage sites: 3 | (F) 10: Half-life (min): 63; #Cleavage sites: 2 | (F) 11: Half-life (min): 79; #Cleavage sites: 4 | (G) TM7-TAT: Half-life (hours): 0.46 | (G) TM6-TAT: Half-life (hours): 0.55 | (G) TM5-TAT: Half-life (hours): 0.81 | (G) 8: Half-life (hours): ≥18 | (G) 9: Half-life (hours): 14.7 | (G) 10: Half-life (hours): 11.7 | (G) 11: Half-life (hours): 5.3 DOUBTS OF THE COPYIST ABOUT THIS PICTURE: Panel A table (Yield, Rt, Purity, [M+H+] calc., [M+H+] Peak Found for 7-11) left out as synthesis and mass-spectrum characterisation data; uncertain whether [M+H+] calc. should count as a molecular weight
Dose–response curves were fitted using a four-parameter logistic nonlinear regression mode. Peptide stability data were fitted using a nonlinear regression mode for dissociation kinetics. All statistical tests, curve fitting, and graphing were performed using GraphPad Prism 8 (GraphPad Software, La Jolla, CA).
To 100 μl of peptide solution (100 μM, dissolved in ammonium bicarbonate buffer, pH 7.5), 60 μl of ammonium bicarbonate buffer (pH 7.5) was added, together with 20 μl of temperature-equilibrated (37 ± 1 °C) α-chymotrypsin (5 μg/ml) from bovine pancreas (Sigma, Type II, activity > 40 units/mg protein). Peptides were incubated for 15, 30, 60, 120, 240, and 480 min, and then MeOH (HPLC grade) + 0.05% TFA was added. The samples were then centrifuged (15,000 rpm), and supernatant was analyzed in a similar manner as described above. The experiment was repeated twice on different days.

[1] = isolated enzyme chymotrypsin, 55.5 μM peptide, 0.55 μg/ml α-chymotrypsin from bovine pancreas, ammonium bicarbonate buffer pH 7.5, 37 °C, 15–480 min, intact peptide by RP-HPLC, n = 3, nonlinear regression fit, read-out: Half-life (min), α-chymotrypsin

Compound: ETYLMFWIGVTSVLLLFIVYAYMYILWGRKKRRQRRR [TM5-TAT, reference compound]
- half-life at 55.5 μM [1]: 28 min

Compound: CCCC[C@H](NC(=O)[C@]1(C)CCC/C=C\CCC[C@](C)(NC(=O)[C@H](Cc2ccccc2)NC(=O)[C@H](CC(C)C)NC(=O)[C@H](CC(C)C)NC(=O)[C@H](CC(C)C)NC(=O)[C@@H](N)C(C)C)C(=O)N[C@@H](C(C)C)C(=O)N[C@@H](Cc2ccc(O)cc2)C(=O)N[C@@H](C)C(=O)N1)C(=O)N[C@@H](Cc1ccc(O)cc1)C(=O)N[C@H](C(=O)N[C@@H](CC(C)C)C(=O)N[C@@H](Cc1c[nH]c2ccccc12)C(N)=O)[C@@H](C)CC [Peptide 8] (H-VLLLF[S5]VYA[S5][Nle]YILW-NH2; staple (Z) 6-10)
- half-life at 55.5 μM (55.5 μM peptide, 0.55 μg/ml α-chymotrypsin from bovine pancreas, ammonium bicarbonate buffer pH 7.5, 37 °C, 15–480 min, intact peptide by RP-HPLC, n = 3, nonlinear regression fit, read-out: Half-life (min), α-chymotrypsin): 425 min

Compound: GRKKRRQRRRKTLVLILVVLIICWGPLLAIMVY [TM6-TAT, reference compound]
- half-life at 55.5 μM [1]: 32 min

Compound: C=CCCC[C@](C)(NC(=O)[C@H](Cc1ccc(O)cc1)NC(=O)[C@@H](N)C(C)C)C(=O)N[C@@H](Cc1ccc(O)cc1)C(=O)N[C@@H](CCCC)C(=O)N[C@@](C)(CCCC=C)C(=O)N[C@H](C(=O)N[C@@H](CC(C)C)C(=O)N[C@@H](Cc1c[nH]c2ccccc12)C(N)=O)[C@@H](C)CC [Peptide 11] (H-VY[S5]Y[Nle][S5]ILW-NH2)
- half-life at 55.5 μM (isolated enzyme chymotrypsin, pH 7.5): 79 min
